Experimental data reported in patent publication US9322066B2, “Predictors for cancer treatment” (priority 2011, dated 2016).

Test system: relapsed or refractory, rituximab-naive or -sensitive follicular B-cell NHL
Assay: Progression-free survival (PFS), Vc-R vs rituximab study, by biomarker
Type: in vivo, human
Source text: Non-Hodgkin lymphoma (NHL) encompasses several unique malignant lymphoid disease entities that vary in clinical behavior, morphologic appearance, immunologic, and molecular phenotype. […] A randomized, open-label, active-controlled, multicenter, multinational, prospective study to compare the efficacy and safety of the combination of bortezomib and rituximab (Vc-R) to single-agent rituximab in subjects who have relapsed or refractory, rituximab-naive or -sensitive follicular B-cell NHL was performed.
Subjects were centrally randomized to Treatment Groups A (Vc-R) or B (rituximab) in a 1:1 ratio taking into account the following stratification factors: • Follicular Lymphoma International Prognostic Index (FLIPI) score (low [0 or 1 factor], intermediate [2 factors], high [≧3 factors]); • Prior rituximab therapy (yes, no); • Time since last dose of anti-lymphoma therapy (≦1 year, >1 year); • Region (United States/Canada, European Union, Rest of World).
The following clinical endpoints were included in the analysis within each treatment group and an overall comparison was made with the biomarker-related endpoints: Progression-free survival, defined as the interval between the date of randomization and the date of progressive disease (PD) or death, whichever is first reported in the ITT population; overall survival; overall response rate (complete response [CR]+CR unconfirmed [CRu]+partial response [PR]); overall CR rate (CR+CRu); duration of response; time to next anti-lymphoma therapy; and treatment free interval.
For single-marker association analyses and pair-wise comparisons, a log rank test and Cox proportional hazard model was utilized for assessments of PFS, TTP, and OS between the treatment groups. Kaplan-Meier curves were utilized to estimate the distribution differences between groups in the time-to-event analyses. Comparison of the response rates between the treatment groups was conducted using the Fishers exact test. Single-marker association analyses were stratified by the covariates.
For pair-wise comparison analysis, biomarker pairs were formed by combinations of two markers. A log rank test was utilized for assessments of PFS, TTP, and OS between the treatment groups in the subpopulation defined by biomarker pairs. Kaplan-Meier curves were utilized to estimate the distribution differences between groups in the time-to-event analyses. Comparison of the response rates between the treatment groups was conducted using the Fishers exact test. Methods of Analysis for the multiple biomarker comparison models can be found in section 4.6.
The stratified log rank test and Cox proportional hazard model was utilized for assessments of PFS between the treatment groups. The Kaplan-Meier method was to be used to estimate the distribution of overall PFS for each treatment group in the biomarker population, and overall; stratified by expression level, SNP, or mutation (or covariate groups as noted above). The hazard ratio and 95% confidence interval was based on a stratified Cox's proportion hazard model with treatment as the explanatory variable. Analyses were done for the population overall and by treatment group, and each of these analyses were also stratified by the following factors if sufficient sample size existed: […]

Substance: rituximab
- Median PFS (Vc-R vs R) (PSMB1/P11A C/G + P65 % POSITIVE CYTOPLASMIC SIGNAL >90%, Excluded): 348 days
- Median PFS (Vc-R vs R) (PSMB1/P11A C/G + P65 % POSITIVE CYTOPLASMIC SIGNAL >90%, Selected): 278 days
- Median PFS (Vc-R vs R) (PSMB1/P11A C/G + P65 % POSITIVE CYTOPLASMIC SIGNAL >90%, Total): 338 days
- Median PFS (Vc − R vs R) (PSMB1/P11A C/G + PSMB9/R60H G/G, Excluded): 346 days
- Median PFS (Vc − R vs R) (PSMB1/P11A C/G + PSMB9/R60H G/G, Selected): 288 days
- Median PFS (Vc − R vs R) (PSMB1/P11A C/G + PSMB9/R60H G/G, Total): 345 days
- Median PFS (Vc-R vs R) (PSMB1/P11A G/G + PSMB5/R24C C/T, Excluded): 345 days
- Median PFS (Vc-R vs R) (PSMB1/P11A G/G + PSMB5/R24C C/T, Selected): 237.5 days
- Median PFS (Vc-R vs R) (PSMB1/P11A G/G + PSMB5/R24C C/T, Total): 345 days
- Median PFS (Vc − R vs R) (PSMB5/R24AC C/C + 20S % NUCLEAR STAINING 30-90, Excluded): 346 days
- Median PFS (Vc − R vs R) (PSMB5/R24C C/C + 20S % NUCLEAR STAINING 30-90, Selected): 281 days
- Median PFS (Vc − R vs R) (PSMB5/R24C C/C + 20S % NUCLEAR STAINING 30-90, Total): 345 days
- PFS median (PSMB5/R24C C/T): 9.3 mo
- PFS median (PSMB5/R24C C/T & CD68 POSITIVE FOLLICULAR: 0-50): 7.2 mo
- PFS median (PSMB5/R24C C/T & P65 INTENSITY CYTOPLASMIC SIGNAL <=1+): 10.4 mo
- Median PFS (Vc-R vs R) (PSMB5/R24C C/T + CD68 POSITIVE FOLLICULAR 0-50, Total): 345 days
- Median PFS (Vc-R vs R) (PSMB9/R60H A/G + 20S % POSITIVE CYTOPLASMIC SIGNAL 95-100, Excluded): 347 days
- Median PFS (Vc-R vs R) (PSMB9/R60H A/G + 20S % POSITIVE CYTOPLASMIC SIGNAL 95-100, Selected): 273 days
- Median PFS (Vc-R vs R) (PSMB9/R60H A/G + 20S % POSITIVE CYTOPLASMIC SIGNAL 95-100, Total): 345 days
- Median PFS (Vc − R vs R) (PSMB9/R60H A/G + CD68 OVERALL POSITIVE 0-50, Excluded): 349 days
- Median PFS (Vc − R vs R) (PSMB9/R60H A/G + CD68 OVERALL POSITIVE 0-50, Selected): 273 days
- Median PFS (Vc − R vs R) (PSMB9/R60H A/G + CD68 OVERALL POSITIVE 0-50, Total): 345 days
- Median PFS (Vc-R vs R) (PSMB9/R60H A/G + CD68 POSITIVE FOLLICULAR 0-50, Excluded): 349 days
- Median PFS (Vc-R vs R) (PSMB9/R60H A/G + CD68 POSITIVE FOLLICULAR 0-50, Selected): 273 days
- Median PFS (Vc-R vs R) (PSMB9/R60H A/G + CD68 POSITIVE FOLLICULAR 0-50, Total): 345 days
- PFS median (PSMB9/R60H G/G & P65 % NUCLEAR STAINING: >0): 9.5 mo
- Median PFS (Vc − R vs R) (PSMB9/R60H G/G + 20S % NUCLEAR STAINING 30-90, Excluded): 345 days
- Median PFS (Vc-R vs R) (PSMB9/R60H G/G + 20S % NUCLEAR STAINING 30-90, Selected): 280 days
- Median PFS (Vc − R vs R) (PSMB9/R60H G/G + 20S % NUCLEAR STAINING 30-90, Total): 345 days
- PFS median (Prior RX: 1 & CD68 POSITIVE FOLLICULAR: 0-50): 9.3 mo
- PFS median (Prior Ritutux NO & CD68 POSITIVE FOLLICULAR: 0-50): 9.2 mo
- PFS median (Race Group OTHER & 20S % NUCLEAR STAINING: >20): 3.8 mo
- Median PFS (Vc-R vs R) (SEX MALE + 20S % NUCLEAR STAINING 30-90, Excluded): 357 days
- Median PFS (Vc-R vs R) (SEX MALE + 20S % NUCLEAR STAINING 30-90, Selected): 235 days
- Median PFS (Vc-R vs R) (SEX MALE + 20S % NUCLEAR STAINING 30-90, Total): 345 days
- Median PFS (Vc − R vs R) (SEX MALE + P65 % POSITIVE CYTOPLASMIC SIGNAL >90%, Excluded): 375 days
- Median PFS (Vc − R vs R) (SEX MALE + P65 % POSITIVE CYTOPLASMIC SIGNAL >90%, Selected): 271 days
- Median PFS (Vc − R vs R) (SEX MALE + P65 % POSITIVE CYTOPLASMIC SIGNAL >90%, Total): 345 days
- Median PFS (Vc-R vs R) (Selected: 20S % NUCLEAR STAINING 30-90 and P65 % POSITIVE CYTOPLASMIC SIGNAL >90%): 277 days
- Median PFS (Vc-R vs R) (Selected: AGEGRP <=65 and CD68 OVERALL POSITIVE 0-50): 279 days
- Median PFS (Vc-R vs R) (Selected: AGEGRP <=65 and P65 % POSITIVE CYTOPLASMIC SIGNAL >90%): 277 days
- Median PFS (Vc-R vs R) (Selected: CD68 OVERALL POSITIVE 0-50 and P65 % POSITIVE C[…] >90%): 279 days
- Median PFS (Vc-R vs R) (Selected: FLIPI High and P65 % POSITIVE CYTOPLASMIC SIGNAL >90%): 212 days
- Median PFS (Vc-R vs R) (Selected: PRITUX NO and P65 % NUCLEAR STAINING 0): 287 days
- Median PFS (Vc-R vs R) (Selected: PSMB1/P11A C/G and ANNARBOR >=III): 275 days
- Median PFS (Vc-R vs R) (Selected: PSMB1/P11A C/G and P65 % NUCLEAR STAINING 0): 279 days
- PFS median (Sex MALE & 20S % NUCLEAR STAINING: >20): 7.7 mo
- Median PFS (Vc-R vs R) (TLAST >1 year + CD68 POSITIVE FOLLICULAR 0-50, Excluded): 288 days
- Median PFS (Vc-R vs R) (TLAST >1 year + CD68 POSITIVE FOLLICULAR 0-50, Selected): 357 days
- Median PFS (Vc-R vs R) (TLAST >1 year + CD68 POSITIVE FOLLICULAR 0-50, Total): 346 days
- Median PFS (Vc − R vs R) (TLAST >1 year + P65 % POSITIVE CYTOPLASMIC SIGNAL >90%, Excluded): 280 days
- Median PFS (Vc − R vs R) (TLAST >1 year + P65 % POSITIVE CYTOPLASMIC SIGNAL >90%, Selected): 357 days
- Median PFS (Vc − R vs R) (TLAST >1 year + P65 % POSITIVE CYTOPLASMIC SIGNAL >90%, Total): 345 days
- PFS median (Total biomarker evaluable, N = 356): 11.3 months
- Median PFS (Vc-R vs R) (Total: 20S % NUCLEAR STAINING 30-90 and P65 % POSITIVE CYTOPLASMIC SIGNAL >90%): 345 days
- Median PFS (Vc-R vs R) (Total: AGEGRP <=65 and CD68 OVERALL POSITIVE 0-50): 345 days
- Median PFS (Vc-R vs R) (Total: AGEGRP <=65 and P65 % POSITIVE CYTOPLASMIC SIGNAL >90%): 345 days
- Median PFS (Vc-R vs R) (Total: CD68 OVERALL POSITIVE 0-50 and P65 % POSITIVE C[…] >90%): 345 days
- Median PFS (Vc-R vs R) (Total: FLIPI High and P65 % POSITIVE CYTOPLASMIC SIGNAL >90%): 345 days
- Median PFS (Vc-R vs R) (Total: PRITUX NO and P65 % NUCLEAR STAINING 0): 345 days
- Median PFS (Vc-R vs R) (Total: PSMB1/P11A C/G and ANNARBOR >=III): 345 days
- Median PFS (Vc-R vs R) (Total: PSMB1/P11A C/G and P65 % NUCLEAR STAINING 0): 338 days
- PFS (confirmation cohort 1 (excludes China; n=106), biomarker positive): 9.5 months
- median PFS (confirmation cohort 2 (includes China subjects and subjects with missing data), biomarker positive): 9.5 months
- PFS (discovery cohort, CD68 Low and PSMB P11A): 8.5 months
- median PFS (subjects with PSMB1 P11A (C/G)): 9.5 months
- median PFS (subjects with higher CD68 expression): 16.2 months
- median PFS (subjects with low CD68 (0-50)): 9.3 months
